pKi: −log10 of the molar value.
How the values were obtained:
[1] = target: T1, recombinant human ALK5 (TGF-βR1) protein (Homo sapiens, UniProt P36897); experiment: Biochemical ALK5 (TGF-βR1) assay to measure pKi (LANCE Ultra ULight kinase assay); settings: apparent pKi, converted from pIC50 using the Cheng-Prusoff equation
T1 construct: purchased Life Technologies PR9075A
T1 sequence (P36897 34-503): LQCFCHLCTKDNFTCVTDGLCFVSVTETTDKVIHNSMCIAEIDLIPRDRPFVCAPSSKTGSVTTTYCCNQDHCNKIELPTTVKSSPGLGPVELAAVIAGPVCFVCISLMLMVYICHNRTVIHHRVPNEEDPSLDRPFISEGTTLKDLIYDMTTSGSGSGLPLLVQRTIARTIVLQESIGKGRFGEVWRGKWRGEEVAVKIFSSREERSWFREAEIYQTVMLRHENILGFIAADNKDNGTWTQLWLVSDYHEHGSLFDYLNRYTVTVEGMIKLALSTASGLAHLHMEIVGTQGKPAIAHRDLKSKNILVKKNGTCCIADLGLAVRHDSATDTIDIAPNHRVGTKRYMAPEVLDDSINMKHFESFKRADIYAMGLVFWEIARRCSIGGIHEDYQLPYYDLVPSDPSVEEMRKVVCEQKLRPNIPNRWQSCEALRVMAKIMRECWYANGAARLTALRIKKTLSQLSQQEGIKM
How it was run: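 TR-FRET kinase format: compound dose range 10 μM–25 pM equilibrated 60 min with human ALK5 and ULight-labelled topoisomerase 2α peptide in HEPES/MgCl2 buffer pH 7.5 with DTT. Reaction started with ATP (125 μM stock, 5× final), 60 min at 37° C, stopped with EDTA/Eu-anti-phospho antibody; pKi derived from pIC50 via Cheng-Prusoff.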

[2] = test system: TGF-β-stimulated SMAD3 phosphorylation in BEAS-2B cells; experiment: Cellular ALK5 potency assay, inhibition of TGF-β stimulated pSMAD3 formation in BEAS-2B cells; type: cell-based; settings: Homo sapiens, inhibition of TGF-β (10 ng/mL) stimulated pSMAD3 formation, 1 hour compound incubation, read-out: BEAS2B pIC50 (converted)
How it was run: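 Phospho-SMAD3 was quantified by AlphaLISA in lysates of human lung epithelial BEAS-2B cells. Compound was added 1 h (37 °C, HEPES/BSA-supplemented HBSS) before a 30 min challenge with 10 ng/mL TGF-β. Values are pIC50 relative to stimulated cells without compound.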

SMILES: CN1CCN(C2CCN(c3cnc4ccc(-c5nn[nH]c5-c5cc(Cl)ccc5F)cc4c3)CC2)CC1 [Compound 18-6, 6-[5-(5-chloro-2-fluoro-phenyl)-1H-triazol-4-yl]-3-[4-(4-methylpiperazin-1-yl)-1-piperidyl]quinoline]
- pKi [1]: 8.50 to 9.40
- IC50 [2]: 25.1 to 158 nM

SMILES: Fc1ccc(Cl)cc1-c1[nH]nnc1-c1ccc2ncc(N3CCCNCC3)cc2c1 [Compound 18-7, 6-[5-(5-chloro-2-fluoro-phenyl)-1H-triazol-4-yl]-3-(1,4-diazepan-1-yl)quinoline]
- pKi [1]: 7.50 to 8.40
- IC50 [2]: 200 to 1260 nM

SMILES: CNCCn1cc(-c2cnc3ccc(-c4c(-c5cc(Cl)ccc5F)nc5ccccn45)cc3c2)cn1 [Compound 19-1, 2-(4-(6-(2-(5-chloro-2-fluorophenyl)imidazo[1,2-a]pyridin-3-yl)quinolin-3-yl)-1H-pyrazol-1-yl)-N-methylethan-1-amine]
- pKi [1]: 9.50 to 10.40
- IC50 [2]: 25.1 to 158 nM

SMILES: Fc1ccc(Cl)cc1-c1nc2ccccn2c1-c1ccc2ncc(-c3cnn(C4CCCNC4)c3)cc2c1 (stereo not shown) [Compound 19-2, 6-[2-(5-chloro-2-fluoro-phenyl)imidazo[1,2-a]pyridin-3-yl]-3-[1-(3-piperidyl)pyrazol-4-yl]quinoline]
- pKi [1]: 9.50 to 10.40
- IC50 [2]: 200 to 1260 nM

SMILES: Fc1ccc(Cl)cc1-c1nc2ccccn2c1-c1ccc2ncc(-c3cn[nH]c3)cc2c1 [Compound 19-3, 6-[2-(5-chloro-2-fluoro-phenyl)imidazo[1,2-a]pyridin-3-yl]-3-(1H-pyrazol-4-yl)quinoline]
- pKi [1]: 8.50 to 9.40
- IC50 [2]: 25.1 to 158 nM

SMILES: Fc1ccc(Cl)cc1-c1nc2ccccn2c1-c1ccc2ncc(N3CCNCC3)cc2c1 [Compound 19-4, 6-(2-(5-chloro-2-fluorophenyl)imidazo[1,2-a]pyridin-3-yl)-3-(piperazin-1-yl)quinoline]
- pKi [1]: 9.50 to 10.40
- IC50 [2]: 200 to 1260 nM

SMILES: CN1CCN(C2CCN(c3cnc4ccc(-c5c(-c6cc(Cl)ccc6F)nc6ccccn56)cc4c3)CC2)CC1 [Compound 19-5, 6-[2-(5-chloro-2-fluoro-phenyl)imidazo[1,2-a]pyridin-3-yl]-3-[4-(4-methylpiperazin-1-yl)-1-piperidyl]quinoline]
- pKi [1]: 9.50 to 10.40
- IC50 [2]: 200 to 1260 nM

SMILES: CC(C)N1CCN(CCNc2cnc3ccc(-c4c(-c5cc(Cl)ccc5F)nc5ccccn45)cc3c2)CC1 [Compound 19-6, 6-(2-(5-chloro-2-fluorophenyl)imidazo[1,2-a]pyridin-3-yl)-N-(2-(4-isopropylpiperazin-1-yl)ethyl)quinolin-3-amine]
- pKi [1]: 8.50 to 9.40
- IC50 [2]: 200 to 1260 nM

SMILES: Fc1ccc(Cl)cc1-c1nc2ccccn2c1-c1ccc2ncc(N3CCCNCC3)cc2c1 [Compound 19-8, 6-[2-(5-chloro-2-fluoro-phenyl)imidazo[1,2-a]pyridin-3-yl]-3-(1,4-diazepan-1-yl)quinoline]
- pKi [1]: 8.50 to 9.40
- IC50 [2]: 200 to 1260 nM

SMILES: CNCCn1cc(-c2cnc3ccc(-c4c(-c5cc(Cl)ccc5F)nnn4Cc4cccnc4)cc3c2)cn1 [Compound 20-1, 2-(4-(6-(4-(5-chloro-2-fluorophenyl)-1-(pyridin-3-ylmethyl)-1H-1,2,3-triazol-5-yl)quinolin-3-yl)-1H-pyrazol-1-yl)-N-methylethan-1-amine]
- pKi [1]: 9.50 to 10.40
- IC50 [2]: 25.1 to 158 nM

SMILES: CNCCn1cc(-c2cnc3ccc(-c4c(-c5cc(Cl)ccc5F)[nH]c5cccnc45)cc3c2)cn1 [Compound 21-1, 2-(4-(6-(2-(5-chloro-2-fluorophenyl)-1H-pyrrolo[3,2-b]pyridin-3-yl)quinolin-3-yl)-1H-pyrazol-1-yl)-N-methylethan-1-amine]
- pKi [1]: 8.50 to 9.40
- IC50 [2]: 200 to 1260 nM

SMILES: CNCCn1cc(-c2cnc3ccc(-c4nc[nH]c4-c4cc(Cl)c(F)cc4F)cc3c2)cn1 [Compound 22-2, 2-(4-(6-(5-(5-chloro-2,4-difluorophenyl)-1H-imidazol-4-yl)quinolin-3-yl)-1H-pyrazol-1-yl)-N-methylethan-1-amine]
- pKi [1]: 9.50 to 10.40
- IC50 [2]: 25.1 to 158 nM

SMILES: NCCn1cc(-c2cnc3ccc(-c4nc[nH]c4-c4cc(Cl)c(F)cc4F)cc3c2)cn1 [Compound 22-3, 2-[4-[6-[5-(5-chloro-2,4-difluoro-phenyl)-1H-imidazol-4-yl]-3-quinolyl]pyrazol-1-yl]ethanamine]
- pKi [1]: 9.50 to 10.40
- IC50 [2]: 25.1 to 158 nM

SMILES: CC(C)N1CCN(CCNc2cnc3ccc(-c4nc[nH]c4-c4cc(Cl)c(F)cc4F)cc3c2)CC1 [Compound 22-4, 6-(5-(5-chloro-2,4-difluorophenyl)-1H-imidazol-4-yl)-N-(2-(4-isopropylpiperazin-1-yl)ethyl)quinolin-3-amine]
- pKi [1]: 9.50 to 10.40
- IC50 [2]: 25.1 to 158 nM

SMILES: Fc1cc(F)c(-c2[nH]cnc2-c2ccc3ncc(NCCN4CCNCC4)cc3c2)cc1Cl [Compound 22-5, 6-[5-(5-chloro-2,4-difluoro-phenyl)-1H-imidazol-4-yl]-N-(2-piperazin-1-ylethyl)quinolin-3-amine]
- pKi [1]: 9.50 to 10.40
- IC50 [2]: 25.1 to 158 nM

SMILES: O=C(O)[C@H]1CN(c2cnc3ccc(-c4nc[nH]c4-c4cc(Cl)c(F)cc4F)cc3c2)CCN1 [Compound 22-6, (2R)-4-[6-[5-(5-chloro-2,4-difluoro-phenyl)-1H-imidazol-4-yl]-3-quinolyl]piperazine-2-carboxylic acid]
- pKi [1]: 7.50 to 8.40
- IC50 [2]: 1580 to 10000 nM

SMILES: NCCn1cc(-c2cnc3ccc(-c4nc[nH]c4-c4ccc(F)c(F)c4)cc3c2)cn1 [Compound 23-1, 2-(4-(6-(5-(3,4-difluorophenyl)-1H-imidazol-4-yl)quinolin-3-yl)-1H-pyrazol-1-yl)ethan-1-amine]
- pKi [1]: 9.50 to 10.40
- IC50 [2]: 25.1 to 158 nM

SMILES: CNCCn1cc(-c2cnc3ccc(-c4nc[nH]c4-c4ccc(F)c(F)c4)cc3c2)cn1 [Compound 23-2, 2-[4-[6-[5-(3,4-difluorophenyl)-1H-imidazol-4-yl]-3-quinolyl]pyrazol-1-yl]-N-methyl-ethanamine]
- pKi [1]: 9.50 to 10.40
- IC50 [2]: 25.1 to 158 nM

SMILES: N[C@@H]1CCCC[C@H]1n1cc(-c2cnc3ccc(-c4nc[nH]c4-c4ccc(F)c(F)c4)cc3c2)cn1 [Compound 23-3, (1R,2R)-2-(4-(6-(5-(3,4-difluorophenyl)-1H-imidazol-4-yl)quinolin-3-yl)-1H-pyrazol-1-yl)cyclohexan-1-amine]
- pKi [1]: 9.50 to 10.40
- IC50 [2]: 25.1 to 158 nM

SMILES: CC(C)N1CCN(CCNc2cnc3ccc(-c4nc[nH]c4-c4ccc(F)c(F)c4)cc3c2)CC1 [Compound 23-4, 6-(5-(3,4-difluorophenyl)-1H-imidazol-4-yl)-N-(2-(4-isopropylpiperazin-1-yl)ethyl)quinolin-3-amine]
- pKi [1]: 7.50 to 8.40
- IC50 [2]: 25.1 to 158 nM

SMILES: Fc1ccc(-c2[nH]cnc2-c2ccc3ncc(NCCN4CCNCC4)cc3c2)cc1F [Compound 23-5, 6-[5-(3,4-difluorophenyl)-1H-imidazol-4-yl]-N-(2-piperazin-1-ylethyl)quinolin-3-amine]
- pKi [1]: 7.50 to 8.40
- IC50 [2]: 200 to 1260 nM

SMILES: CNCCn1cc(-c2cnc3ccc(-c4nc[nH]c4-c4cccc(Cl)c4)cc3c2)cn1 [Compound 24-1, 2-(4-(6-(5-(3-chlorophenyl)-1H-imidazol-4-yl)quinolin-3-yl)-1H-pyrazol-1-yl)-N-methylethan-1-amine]
- pKi [1]: ≥ 10.50
- IC50 [2]: ≤ 20 nM

SMILES: CC(C)N1CCN(CCNc2cnc3ccc(-c4nc[nH]c4-c4cccc(Cl)c4)cc3c2)CC1 [Compound 24-2, 6-(5-(3-chlorophenyl)-1H-imidazol-4-yl)-N-(2-(4-isopropylpiperazin-1-yl)ethyl)quinolin-3-amine]
- pKi [1]: 8.50 to 9.40
- IC50 [2]: 25.1 to 158 nM

Source: patent US11730720B2, “ALK5 inhibitors” (THERAVANCE BIOPHARMA R&D IP, LLC, priority 2018, dated 2023)
